The subject of one series is HBV. The series is described as follows: Anti-HBV activity, HepG2.117 cell line, intracellular HBV DNA by real-time PCR. It counts as cell-based, Hepatitis B virus. The settings on record: Hepatitis B virus, read-out: HBV-AVE-HepG2.117 EC50. As to the method:
The anti HBV activity was measured using the HepG2.117 cell line, a stable, inducibly HBV producing cell line, which replicates HBV in the absence of doxicycline (Tet-off system). The HepG2 cell line is available from ATCC® under number HB-8065. Transfection of the HepG2 cell line can be as described in Sun and Nassal 2006 Journal of Hepatology 45 (2006) 636-645 “Stable HepG2- and Huh7-based human hepatoma cell lines for efficient regulated expression of infectious hepatitis B virus”.
For the antiviral assay, HBV replication was induced, followed by a treatment with serially diluted compound in 96-well plates. After 3 days of treatment, the antiviral activity was determined by, quantification of intracellular HBV DNA using real-time PCR and an HBV specific primer set and probe.

Series [1] in a line: Cytotoxicity, ATPlite Luminescence Assay. The settings on record: human, mean value, cells incubated for 3 days, viability by ATPlite, read-out: TOX-HepC2.117 CC50. Type of series: cell-based, human. The method, then: Cytotoxicity of the compounds was tested using HepG2 or HepG2.117 cells, incubated for 3 days in the presence of compounds. The viability of the cells was assessed using the PERKIN ELMER ATPlite Luminescence Assay System.”
For orientation: Cellular ATP, detected with luciferase, serves as a proxy for viable cell number.

Setting [2] is: 72 h, mean value, HepG2.117 cells, 3 days of treatment, intracellular HBV DNA.

This is an account of results in patent US20220242879A1, “FUSED HETEROCYCLE DERIVATIVES” (Janssen Sciences Ireland Unlimited Company, priority 2019, published 2022).

For orientation: EC50 means the concentration at which the effect is half-maximal. The term CC50 denotes the concentration that lowers cell viability or growth by half.

Read-outs that look alike come from different tables or passages of the source.

With `Cn1cnc2c1CCCn1nc3c(c1-2)CN(C(=O)c1ccc(Cl)c(Cl)c1)CC3` [Compound 45, (3,4-Dichlorophenyl)(3-methyl-4,5,6,9,10,12-hexahydroimidazo[4,5-c]pyrido[4′,3′:3,4]pyrazolo-[1,5-a]azepin-11(3H)-yl)methanone], the EC50 with HBV (setting [2]) came out at 4.97 µM. For the same compound, in series [1] (HepG2.117 cells), the CC50 at 3 days is greater than 50 µM.
As to `O=C(c1ccc(Cl)c(Cl)c1)N1CCc2nn3c(c2C1)-c1oncc1CCC3` [Compound 39, (3,4-Dichlorophenyl)(4,5,6,9,10,12-hexahydro-11H-[1,2]oxazolo[5,4-c]pyrido[4′,3′:3,4]-pyrazolo[1,5-a]azepin-11-yl)methanone], the EC50 in the series on HBV (setting [2]) came to 1.34 µM. In series [1] (HepG2.117 cells), the CC50 at 3 days turned out to be 43.6 µM.
As to `O=C(NCC(F)(F)F)C1Cc2conc2-c2c3c(nn2C1)CCN(C(=O)c1ccc(Cl)c(Cl)c1)C3` (stereo not shown) [Compound 35, 11-(3,4-Dichlorobenzoyl)-N-(2,2,2-trifluoroethyl)-5,6,9,10,11,12-hexahydro-4H-[1,2]oxazolo-[3,4-c]pyrido[4′,3′:3,4]pyrazolo[1,5-a]azepine-5-carboxamide], the concentration for a half-maximal effect (EC50) with HBV (setting [2]) turned out to be 0.395 µM. Besides, the CC50 at 3 days in series [1] (HepG2.117 cells) was greater than 50 µM.
On to `O=C(NC1CC1)C1Cc2conc2-c2c3c(nn2C1)CCN(C(=O)c1ccc(Cl)c(Cl)c1)C3` (stereo not shown) [Compound 33, N-Cyclopropyl-11-(3,4-dichlorobenzoyl)-5,6,9,10,11,12-hexahydro-4H-[1,2]oxazolo[3,4-c]-pyrido[4′,3′:3,4]pyrazolo[1,5-a]azepine-5-carboxamide], for which the EC50 in the series with HBV (HepG2.117, 72 h) amounted to 0.154 µM. In addition, in series [1], the CC50 at 3 days was greater than 50 µM.
With `CNC(=O)[C@@H]1Cc2conc2-c2c3c(nn2C1)CCN(C(=O)c1ccc(Cl)c(Cl)c1)[C@@H]3C` (single isomer, unassigned) [Compound 49], in the series on HBV (setting [2]), the EC50 turned out to be 4.64 µM. The CC50 at 3 days in series [1] (HepG2.117 cells) was greater than 50 µM.
As to `O=C(c1ccc(Cl)c(Cl)c1)N1CCc2nn3c(c2C1)-c1nocc1CC(O)C3` (stereo not shown) [Compound 19, (3,4-Dichlorophenyl)(5-hydroxy-5,6,9,10-tetrahydro-4H-isoxazolo[3,4-c]pyrido[4′,3′:3,4]pyrazolo[1,5-a]azepin-11(12H)-yl)methanone], in the series on HBV (setting [2]), the EC50 stood at 0.263 µM. For the same compound, in series [1] (HepG2.117 cells), the CC50 at 3 days was greater than 50 µM.
For the compound `Cn1ncc2c1-c1c3c(nn1CC2)CCN(C(=O)c1ccc(Cl)c(Cl)c1)C3` [Compound 9, (3,4-Dichlorophenyl)(1-methyl-1,4,5,8,9,11-hexahydro-10H-pyrazolo[3,4-c]pyrazolo-[1,5-a:4,3-c′]dipyridin-10-yl)methanone], the EC50 in the series on HBV (setting [2]) is greater than 50 µM. Moreover, the cytotoxic concentration (CC50) at 3 days in series [1] (HepG2.117 cells) is greater than 50 µM.
Regarding `CNC(=O)C1(O)Cc2conc2-c2c3c(nn2C1)CCN(C(=O)c1ccc(Cl)c(Cl)c1)C3` (stereo not shown) [Compound 22, 11-(3,4-Dichlorobenzoyl)-S-hydroxy-N-methyl-5,6,9,10,11,12-hexahydro-4H-[1,2]oxazolo-[3,4-c]pyrido[4′,3′:3,4]pyrazolo[1,5-a]azepine-5-carboxamide], the EC50 in the series on HBV (setting [2]) was determined as 0.13 µM. For the same compound, in series [1] (HepG2.117 cells), the CC50 at 3 days is greater than 50 µM.
On to `Cn1cc2c(n1)-c1c3c(nn1CC2)CCN(C(=O)c1ccc(Cl)c(Cl)c1)C3` [Compound 8, (3,4-Dichlorophenyl)(2-methyl-2,4,5,8,9,11-hexahydro-10H-pyrazolo[3,4-c]pyrazolo-[1,5-a:4,3-c]dipyridin-10-yl)methanone], for which, in the series with HBV (setting [2]), the EC50 turned out to be 2.55 µM. Besides, in series [1] (HepG2.117 cells), the CC50 at 3 days is greater than 50 µM.
Take `Nc1nc2c(s1)CCCn1nc3c(c1-2)CN(C(=O)c1ccc(Cl)c(Cl)c1)CC3` [Compound 51, (2-amino-4,5,6,9,10,12-hexahydro-11H-pyrido[4′,3′:3,4]pyrazolo[1,5-a]thiazolo[4,5-c]azepin-11-yl)(3,4-dichlorophenyl)methanone]: the EC50 in the series on HBV (setting [2]) was greater than 10 µM. Further, in series [1] (HepG2.117 cells), the CC50 at 3 days was greater than 50 µM.
Consider `Cc1onc2c1CCCn1nc3c(c1-2)CN(C(=O)c1ccc(Cl)c(Cl)c1)CC3` [Compound 12, (3,4-Dichlorophenyl)(3-methyl-5,6,9,10-tetrahydro-4H-[1,2]oxazolo[3,4-c]pyrido[4′,3′:3,4]-pyrazolo[1,5-a]azepin-11(12H)-yl)methanone], for which, in the series with HBV (setting [2]), the EC50 worked out at 0.835 µM. The CC50 at 3 days in series [1] (HepG2.117 cells) was 31.1 µM.
Consider `CN(C)C(=O)C1Cc2conc2-c2c3c(nn2C1)CCN(C(=O)c1ccc(Cl)c(Cl)c1)C3` (stereo not shown) [Compound 36, 11-(3,4-Dichlorobenzoyl)-N,N-dimethyl-5,6,9,10,11,12-hexahydro-4H-[1,2]oxazolo[3,4-c]pyrido[4′,3′:3,4]pyrazolo[1,5-a]azepine-5-carboxamide], for which the EC50 in the series on HBV (setting [2]) turned out to be 0.686 µM. Also, the CC50 at 3 days in series [1] (HepG2.117 cells) is greater than 50 µM.
With `CNC(=O)[C@H]1Cc2conc2-c2c3c(nn2C1)CCN(C(=O)c1ccc(Cl)c(Cl)c1)[C@@H]3C` (single isomer, unassigned) [Compound 50], the EC50 in the series with HBV (setting [2]) stood at 8.43 µM. Moreover, the CC50 at 3 days in series [1] (HepG2.117 cells) is greater than 50 µM.
For `Cc1nc2c(s1)CCn1nc3c(c1-2)CN(C(=O)c1ccc(Cl)c(Cl)c1)CC3` [Compound 10, (3,4-Dichlorophenyl)(2-methyl-4,8,9,11-tetrahydro[1,3]thiazolo[4,5-c]pyrazolo[1,5-a:4,3-c′]-dipyridin-10(5H)-yl)methanone] the same measures were 8.06 µM and greater than 10 µM.
Consider `O=C(c1ccc(Cl)c(Cl)c1)N1CCc2nn3c(c2C1)-c1nocc1CC3` [Compound 1, (3,4-Dichlorophenyl)(4,5,8,9-tetrahydro[1,2]oxazolo[3,4-c]pyrazolo[1,5-a:4,3-c′]dipyridin-10(11H)-yl)methanone], for which, in the series on HBV (setting [2]), the EC50 came out at 1.13 µM. Moreover, the CC50 at 3 days in series [1] (HepG2.117 cells) was greater than 50 µM.
Regarding `CNC(=O)[C@H]1Cc2conc2-c2c3c(nn2C1)C[C@@H](C)N(C(=O)c1ccc(Cl)c(Cl)c1)C3` (single isomer, unassigned) [Compound 48], the EC50 with HBV (setting [2]) came to 0.019 µM. In addition, the CC50 at 3 days in series [1] (HepG2.117 cells) was greater than 50 µM.
In the case of `Cc1onc2c1CCCn1nc3c(c1-2)CN(C(=O)c1ccc(Cl)c(Cl)c1)[C@H](C)C3` [Compound 15, (3,4-dichlorophenyl)[(10R)-3,10-dimethyl-5,6,9,10-tetrahydro-4H-[1,2]oxazolo-[3,4-c]pyrido[4′,3′:3,4]pyrazolo[1,5-a]azepin-11(12H)-yl]methanone], the EC50 in the series with HBV (setting [2]) turned out to be 0.934 µM. The CC50 at 3 days in series [1] (HepG2.117 cells) is greater than 43.5 µM.
For `O=C(c1ccc(Cl)c(Cl)c1)N1CCc2nn3c(c2C1)-c1ncoc1CCC3` [Compound 40, (3,4-Dichlorophenyl)(4,5,6,9,10,12-hexahydro-11H-[1,3]oxazolo[4,5-c]pyrido-[4′,3′:3,4]pyrazolo[1,5-a]azepin-11-yl)methanone] the same measures were 0.499 µM and greater than 50 µM.
Turning to `O=C(c1ccc(Cl)c(Cl)c1)N1CCc2nn3c(c2C1)-c1nocc1CC(O)(CO)C3` (stereo not shown) [Compound 18, (3,4-Dichlorophenyl)[5-hydroxy-5-(hydroxymethyl)-5,6,9,10-tetrahydro-4H-[1,2]oxazolo-[3,4-c]pyrido[4′,3′:3,4]pyrazolo[1,5-a]azepin-11(12H)-yl]methanone], the EC50 in the series on HBV (setting [2]) was determined as 1.05 µM. Besides, in series [1] (HepG2.117 cells), the CC50 at 3 days is greater than 50 µM.
With `CNC(=O)[C@H]1Cc2conc2-c2c3c(nn2C1)CCN(C(=O)c1ccc(Cl)c(Cl)c1)C3` (single isomer, unassigned) [Compound 31, (5*S)-11-(3,4-Dichlorobenzoyl)-N-methyl-5,6,9,10,11,12-hexahydro-4H-[1,2]oxazolo[3,4-c]pyrido[4′,3′:3,4]pyrazolo[1,5-a]azepine-5-carboxamide], in the series with HBV (setting [2]), the EC50 came to 0.047 µM. For the same compound, in series [1] (HepG2.117 cells), the cytotoxic concentration (CC50) at 3 days was greater than 50 µM.
For `C[C@@H]1Cc2nn3c(c2CN1C(=O)c1ccc(Cl)c(Cl)c1)-c1nocc1CCC3` [Compound 14, (3,4-dichlorophenyl)[(10R)-10-methyl-5,6,9,10-tetrahydro-4H-[1,2]oxazolo-[3,4-c]pyrido[4′,3′:3,4]pyrazolo[1,5-a]azepin-11(12H)-yl]methanone] the same measures were 0.213 µM and 39.2 µM.
As to `O=C(O)C1Cc2conc2-c2c3c(nn2C1)CCN(C(=O)c1ccc(Cl)c(Cl)c1)C3` (stereo not shown) [Compound 29, 11-(3,4-Dichlorobenzoyl)-5,6,9,10,11,12-hexahydro-4H-[1,2]oxazolo[3,4-c]pyrido[4′,3′:3,4]-pyrazolo[1,5-a]azepine-5-carboxylic Acid], the EC50 in the series on HBV (setting [2]) was determined as 15.5 µM. For the same compound, in series [1] (HepG2.117 cells), the CC50 at 3 days was greater than 50 µM.
As for `C[C@@H]1Cc2nn3c(c2CN1C(=O)c1ccc(Cl)c(Cl)c1)-c1nocc1CC3` [Compound 5, (3,4-Dichlorophenyl)[(9R)-9-methyl-4,5,8,9-tetrahydro[1,2]oxazolo[3,4-c]-pyrazolo[1,5-a:4,3-c′]dipyridin-10(11H)-yl]methanone], in the series with HBV (setting [2]), the EC50 was 0.279 µM. In addition, in series [1] (HepG2.117 cells), the CC50 at 3 days was greater than 50 µM.
